This is an account of results in patent publication US10227331B2 (priority 2015, dated 2019).

In one series the test system is MB 5919 (OprD+, efflux+). It counts as cell-based, Pseudomonas aeruginosa.
For the next series, the system named is MB 5890 (OprD+, efflux-). It counts as cell-based, Pseudomonas aeruginosa.
The test system of series [1] is MB 9799 (MB 5890 Trans IMP1 plasmid, efflux-). It counts as cell-based, Pseudomonas aeruginosa. The note with it: CL 5673 (IMP-1) plasmid.
The test system of series [2] is MB 9861 (MB 5919 Trans pFIp-Vim1 plasmid, efflux+). It counts as cell-based, Pseudomonas aeruginosa.
The subject of series [3] is MB 9862 (MB 5890 Trans pFIp-Vim1, efflux-). It counts as cell-based, Pseudomonas aeruginosa.
The test system of series [4] is MB 5919 Trans pFIp-Vim2 plasd (efflux+). It counts as cell-based, Pseudomonas aeruginosa.
Series [5] relates to MB 5890 Trans pFIp-Vim2 plasd (efflux-). It counts as cell-based, Pseudomonas aeruginosa.
In the next series the target is IMP-1 (Serratia marcescens, UniProt P52699). Kind of series: biochemical. It counts as biochemical. The note with it: CCF2-FA substrate, 2 hours at 25° C; read-out: IMP-1 IC50. In short, it runs like this: (§1)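 IC50 values derive from 4-parameter fits of percent inhibition against inhibitor concentration on semi-log axes. Activity was monitored by fluorescence with the CCF2-FA substrate after a 2-hour, 25° C incubation of compound, enzyme and substrate.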

The next series deals with NDM-1 (Klebsiella pneumoniae, UniProt C7C422). As to the kind of experiment: biochemical. It counts as biochemical. The following applies: CCF2-FA substrate, 2 hours at 25° C; read-out: NDM-1 IC50. In short, it runs like this:
as §1

The next series addresses VIM-1 (Pseudomonas aeruginosa (strain ATCC 15692 / DSM 22644 / CIP 104116 / JCM 14847 / LMG 12228 / 1C / PRS 101 / PAO1), UniProt A0A0F7KYQ8). As to the kind of experiment: biochemical. The following applies: CCF2-FA substrate, 2 hours at 25° C. In short, it runs like this: as §1
The test system of series [6] is Escherichia coli expressing NDM-1 (CLB30005, CLB30016). It counts as cell-based. The following applies: NDM-1 (CLB30016), with imipenem 1 μg/ml, 95% inhibition of bacterial growth. In short, it runs like this: (§2)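 Restoration of imipenem susceptibility (1 μg/ml imipenem) was judged by absorbance after 22–24 h at 35° C. Test compound was added to bacteria suspended 1:100 in 1.1× CAMHB from overnight blood-agar cultures.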

Series [7] relates to Klebsiella pneumoniae expressing VIM-1 (IHMA599644). It counts as cell-based. The following applies: VIM-1 (IHMA599644), with imipenem 1 μg/ml, 95% inhibition of bacterial growth. In short, it runs like this: as §2
The test system of series [8] is Serratia marcescens expressing IMP-1 (CL5741). It counts as cell-based. The following applies: IMP-1 (CL5741), with imipenem 1 μg/ml, 95% inhibition of bacterial growth. In short, it runs like this:
as §2

The subject of series [9] is P. aeruginosa expressing IMP-1, efflux+ (MB9798). It counts as cell-based, Pseudomonas aeruginosa. An excerpt: (§3) The strain background is Pseudomonas aeruginosa PAO1.
Series [10] concerns P. aeruginosa expressing IMP-1, efflux− (MB9799). As to the kind of experiment: Efflux: concentration of MBL inhibitor which restores susceptibility to imipenem. It counts as cell-based, Pseudomonas aeruginosa. The following applies: imipenem at 2 μg/mL, in the presence of a class A, C, D serine β-lactamase inhibitor closely related to relebactam.
Description: as §3

Molecules are shown by their SMILES. Converted amounts (≈) assume the structure as drawn. Bounds are passed on as bounds.

Sequence of IMP-1 (P52699 whole entry, looked up, species assumed): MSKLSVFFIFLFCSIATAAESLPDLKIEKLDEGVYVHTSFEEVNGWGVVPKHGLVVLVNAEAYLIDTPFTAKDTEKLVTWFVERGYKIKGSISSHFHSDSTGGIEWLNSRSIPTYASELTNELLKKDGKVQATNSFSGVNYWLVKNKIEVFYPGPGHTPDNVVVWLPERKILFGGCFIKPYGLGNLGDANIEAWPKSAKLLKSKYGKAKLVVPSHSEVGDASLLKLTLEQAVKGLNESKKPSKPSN
Sequence of NDM-1 (C7C422 whole entry, looked up, species assumed): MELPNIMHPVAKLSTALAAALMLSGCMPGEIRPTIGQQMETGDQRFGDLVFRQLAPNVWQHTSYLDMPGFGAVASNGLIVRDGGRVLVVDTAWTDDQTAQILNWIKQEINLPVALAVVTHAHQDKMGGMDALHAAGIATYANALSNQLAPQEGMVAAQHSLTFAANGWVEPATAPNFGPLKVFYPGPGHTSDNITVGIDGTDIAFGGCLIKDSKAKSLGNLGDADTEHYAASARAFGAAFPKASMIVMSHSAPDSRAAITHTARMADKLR

In general, MIC refers to the least concentration at which growth counts as inhibited. Read a high MIC as a less susceptible organism. Consider `CCN1CCN(C(=O)N[C@@H](C(=O)N[C@@H]2C(=O)N3[C@@H]2SC(C)(C)[C@@H]3C(=O)O)c2ccccc2)C(=O)C1=O` [Pipercillin, piperacillin], for which the MIC with MB 5919 (OprD+, efflux+) is 2 µg/mL (≈ 3.86 µM); in the series with MB 5890 (OprD+, efflux-) it was 1 µg/mL (≈ 1.93 µM); in series [1], 4 µg/mL (≈ 7.73 µM); in series [2] it was greater than 256 µg/mL; in [3], 128 µg/mL (≈ 247 µM); in series [4] it was greater than 256 µg/mL. Further, the MIC in [5] came out at 128 µg/mL (≈ 247 µM).
In the case of `CC(C)(O/N=C(\C(=O)N[C@@H]1C(=O)N2C(C(=O)[O-])=C(C[n+]3ccccc3)CS[C@H]12)c1csc(N)n1)C(=O)O` [CAZ, ceftazidime], the minimal inhibitory concentration (MIC) was 1 µg/mL (≈ 1.83 µM) with MB 5919 (OprD+, efflux+); 0.5 µg/mL (≈ 0.915 µM) in the series on MB 5890 (OprD+, efflux-); 256 µg/mL (≈ 468 µM) in series [1]; greater than 256 µg/mL in series [2]; greater than 256 µg/mL in series [3]; 128 µg/mL (≈ 234 µM) in series [4]. In addition, in [5], the MIC amounted to 64 µg/mL (≈ 117 µM).
With `C[C@@H](O)[C@H]1C(=O)N2C(C(=O)O)=C(S[C@@H]3CN[C@H](C(=O)N(C)C)C3)[C@H](C)[C@H]12` [Meropenem, meropenem], the MIC was 2 µg/mL (≈ 5.22 µM) against MB 5919 (OprD+, efflux+); 0.5 µg/mL (≈ 1.3 µM) in the series on MB 5890 (OprD+, efflux-); 64 µg/mL (≈ 167 µM) in series [1]; greater than 64 µg/mL in series [2]; 64 µg/mL (≈ 167 µM) in [3]; greater than 64 µg/mL in series [4]. In [5], this compound had a minimal inhibitory concentration (MIC) of 32 µg/mL (≈ 83.4 µM).
Consider `C[C@@H](O)[C@H]1C(=O)N2C(C(=O)O)=C(SCCN=CN)C[C@H]12` [Imipenem, imipenem], for which the MIC was 4 µg/mL (≈ 13.4 µM) against MB 5919 (OprD+, efflux+); 2 µg/mL (≈ 6.68 µM) against MB 5890 (OprD+, efflux-); 32 µg/mL (≈ 107 µM) in series [1]; greater than 64 µg/mL in series [2]; 64 µg/mL (≈ 214 µM) in series [3]; greater than 64 µg/mL in [4]. Moreover, in [5], the MIC came to 32 µg/mL (≈ 107 µM).
As usually defined, the IC50 is the midpoint of a concentration-inhibition curve. On to `NC[C@H](O)CS(=O)(=O)c1ccc(-c2cccc(-c3c[nH]c(N)n3)c2)c(-c2nn[nH]n2)c1S(N)(=O)=O` [Example 366, (S)-3'-(2-amino-1H-imidazol-4-yl)-4-((3-amino-2-hydroxypropyl)sulfonyl)-2-(2H-tetrazol-5-yl)-[1,1'-biphenyl]-3-sulfonamide], for which the values for the IC50 on IMP-1, at NDM-1 and on VIM-1 were 1.81 nM, 0.623 nM and 1.17 nM, respectively. The “Escherichia coli MITC95” value in series [6] was found to be 0.7813 µM. In addition, in [7], the “Klebsiella pneumoniae MITC95” value worked out at 1.563 µM. In addition, the “Serratia marcescens MITC95” value in series [8] worked out at 1.563 µM. The “P. aeruginosa expressing IMP-1, efflux+ (MB9798) MITC95” value in series [9] (imipenem at 2 μg/mL, in the presence of a class A, C, D serine β-lactamase inhibitor closely related to relebactam) is 3.125 µM. In series [9] (ratio MITC95 PA_9798/MITC95 PA_9799), the Efflux ratio is on record as 2.00. Moreover, the “P. aeruginosa expressing IMP-1, efflux− (MB9799) MITC95” value in [10] is 1.563 µM.
